{"source": "patent US8815249B2", "about": "(priority 1999, dated 2014)", "key": {"[1]": {"tested_on": "normal donor (DR0701) PBMC", "type": "cell-based, human"}, "[2]": {"tested_on": "normal donor (DR0402) PBMC", "type": "cell-based, human"}, "[3]": {"tested_on": "HIV gp160(843-855) peptide", "type": "in vivo", "conditions": "B10.A (5R) mice, peptides in saline solution, serum day 35", "experimental": "An ELISA assay for antibody responses following immunization with the experimental peptides indicated above was performed as follows. Fifty microliters (μl) of a solution of the coating peptide at 2 μg/well in 0.1 M carbonate buffer, pH 9.5 was added to each well of a 96-well Nunc-immunoplate (#442404) for an overnight incubation at 4° C. After aspiration, 250 μl of phosphate-buffer saline solution containing 3% fetal bovine serum (assay diluent) was added to each well for 2 hr at RT. After washing three times with assay diluent, 50 μl of 20-times diluted mouse serum in 1:3 serial dilution in assay diluent was added to each well for 2 hr at RT. After washing three times with assay diluent, 50 μl of 1 ÿg/ml biotinylated goat anti-mouse IgG1 or IgG2a was added to each well and incubated for 1 hr at RT. After washing three times with assay diluent, 50 μl of streptavidin-horse radish peroxidase conjugate (1:1000) was added to each well and incubated for 30 min at RT. After washing three times with assay diluent, 100 μl of tetramethylbenzidine/H2O2 solution (Pharmingen 264KK) was added to each well for 15 min in the dark at room temperature. The reaction was stopped with 100 μl 1N H2SO4 in each well and the absorbance was read immediately at 450 nm.\nB10.A (5R) mice (H-2^k/b) were immunized with 20 nmole of peptides in 50 μl phosphate-buffered saline solution, intramuscularly in right and left rear legs on days 1 and 2, respectively. On day 14 the mice were boosted intramuscularly with 40 nmole of peptides in 200 μl Hank's balanced salts solution intramuscularly in a rear leg. On day 30 the mice were boosted intravenously with 40 nmole peptides dissolved in Hank's balanced salts solution (HBSS). On day 35 the mice were sacrificed and serum samples were assayed for antibody titers against the HIV gp160(843-855) peptide."}}, "note": "Like-named read-outs stand apart in the source and are kept apart here. Non-standard residues stand in square brackets, D forms with d. Ava = NCCCCC(=O)O"}
{"substance": "AE-Her-36 (Ac-GVGSPYVSRLLGICL-NH2; listed as Homo sapiens)", "values": [{"measurement": "IFN-γ spots pulsed", "setting": "[1]", "result": 100, "unit": "spots"}, {"measurement": "IFN-γ spots unpulsed", "setting": "[1]", "result": 4, "unit": "spots"}]}
{"substance": "AE-Her-37 (Ac-LRMKGVGSPYVSRLLGICL-NH2)", "values": [{"measurement": "IFN-γ spots pulsed", "setting": "[1]", "result": 560, "unit": "spots"}, {"measurement": "IFN-γ spots unpulsed", "setting": "[1]", "result": 65, "unit": "spots"}]}
{"substance": "AE-Her-38 (Ac-LRMK[Ava]SPYVSRLLGICL-NH2; SMILES CC[C@H](C)[C@H](NC(=O)CNC(=O)[C@H](CC(C)C)NC(=O)[C@H](CC(C)C)NC(=O)[C@H](CCCNC(=N)N)NC(=O)[C@H](CO)NC(=O)[C@@H](NC(=O)[C@H](Cc1ccc(O)cc1)NC(=O)[C@@H]1CCCN1C(=O)[C@H](CO)NC(=O)CCCCNC(=O)[C@H](CCCCN)NC(=O)[C@H](CCSC)NC(=O)[C@H](CCCNC(=N)N)NC(=O)[C@H](CC(C)C)NC(C)=O)C(C)C)C(=O)N[C@@H](CS)C(=O)N[C@@H](CC(C)C)C(N)=O)", "values": [{"measurement": "IFN-γ spots pulsed", "setting": "[1]", "result": 210, "unit": "spots"}, {"measurement": "IFN-γ spots unpulsed", "setting": "[1]", "result": 27, "unit": "spots"}]}
{"substance": "AE-Her-39 (Ac-LRMK[Ava]GVGSPYVSRLLGICL-NH2; SMILES CC[C@H](C)[C@H](NC(=O)CNC(=O)[C@H](CC(C)C)NC(=O)[C@H](CC(C)C)NC(=O)[C@H](CCCNC(=N)N)NC(=O)[C@H](CO)NC(=O)[C@@H](NC(=O)[C@H](Cc1ccc(O)cc1)NC(=O)[C@@H]1CCCN1C(=O)[C@H](CO)NC(=O)CNC(=O)[C@@H](NC(=O)CNC(=O)CCCCNC(=O)[C@H](CCCCN)NC(=O)[C@H](CCSC)NC(=O)[C@H](CCCNC(=N)N)NC(=O)[C@H](CC(C)C)NC(C)=O)C(C)C)C(C)C)C(=O)N[C@@H](CS)C(=O)N[C@@H](CC(C)C)C(N)=O)", "values": [{"measurement": "IFN-γ spots pulsed", "setting": "[1]", "result": 160, "unit": "spots"}, {"measurement": "IFN-γ spots unpulsed", "setting": "[1]", "result": 24, "unit": "spots"}]}
{"substance": "AE-Her-47 (Ac-LRMK[Ava]GSPYVSRLLGICL-NH2; SMILES CC[C@H](C)[C@H](NC(=O)CNC(=O)[C@H](CC(C)C)NC(=O)[C@H](CC(C)C)NC(=O)[C@H](CCCNC(=N)N)NC(=O)[C@H](CO)NC(=O)[C@@H](NC(=O)[C@H](Cc1ccc(O)cc1)NC(=O)[C@@H]1CCCN1C(=O)[C@H](CO)NC(=O)CNC(=O)CCCCNC(=O)[C@H](CCCCN)NC(=O)[C@H](CCSC)NC(=O)[C@H](CCCNC(=N)N)NC(=O)[C@H](CC(C)C)NC(C)=O)C(C)C)C(=O)N[C@@H](CS)C(=O)N[C@@H](CC(C)C)C(N)=O)", "values": [{"measurement": "IFN-γ spots pulsed", "setting": "[1]", "result": 380, "unit": "spots"}, {"measurement": "IFN-γ spots unpulsed", "setting": "[1]", "result": 23, "unit": "spots"}]}
{"substance": "AE-Her-48 (Ac-LRMK[Ava]VGSPYVSRLLGICL-NH2; SMILES CC[C@H](C)[C@H](NC(=O)CNC(=O)[C@H](CC(C)C)NC(=O)[C@H](CC(C)C)NC(=O)[C@H](CCCNC(=N)N)NC(=O)[C@H](CO)NC(=O)[C@@H](NC(=O)[C@H](Cc1ccc(O)cc1)NC(=O)[C@@H]1CCCN1C(=O)[C@H](CO)NC(=O)CNC(=O)[C@@H](NC(=O)CCCCNC(=O)[C@H](CCCCN)NC(=O)[C@H](CCSC)NC(=O)[C@H](CCCNC(=N)N)NC(=O)[C@H](CC(C)C)NC(C)=O)C(C)C)C(C)C)C(=O)N[C@@H](CS)C(=O)N[C@@H](CC(C)C)C(N)=O)", "values": [{"measurement": "IFN-γ spots pulsed", "setting": "[1]", "result": 1770, "unit": "spots"}, {"measurement": "IFN-γ spots unpulsed", "setting": "[1]", "result": 212, "unit": "spots"}]}
{"substance": "AE-TYR-1 (Ac-ALHIYMDGTMSQVQGSA-NH2)", "values": [{"measurement": "IFN-γ spots pulsed", "setting": "[2]", "result": 120, "unit": "spots"}, {"measurement": "IFN-γ spots unpulsed", "setting": "[2]", "result": 0, "unit": "spots"}]}
{"substance": "AE-TYR-2 (Ac-HNALHIYMDGTMSQVQGSA-NH2)", "values": [{"measurement": "IFN-γ spots pulsed", "setting": "[2]", "result": 360, "unit": "spots"}, {"measurement": "IFN-γ spots unpulsed", "setting": "[2]", "result": 140, "unit": "spots"}]}
{"substance": "AE-TYR-3 (Ac-LRMK[Ava]NALHIYMDGTMSQVQGSA-NH2; SMILES CC[C@H](C)[C@H](NC(=O)[C@H](Cc1c[nH]cn1)NC(=O)[C@H](CC(C)C)NC(=O)[C@H](C)NC(=O)[C@H](CC(N)=O)NC(=O)CCCCNC(=O)[C@H](CCCCN)NC(=O)[C@H](CCSC)NC(=O)[C@H](CCCNC(=N)N)NC(=O)[C@H](CC(C)C)NC(C)=O)C(=O)N[C@@H](Cc1ccc(O)cc1)C(=O)N[C@@H](CCSC)C(=O)N[C@@H](CC(=O)O)C(=O)NCC(=O)N[C@H](C(=O)N[C@@H](CCSC)C(=O)N[C@@H](CO)C(=O)N[C@@H](CCC(N)=O)C(=O)N[C@H](C(=O)N[C@@H](CCC(N)=O)C(=O)NCC(=O)N[C@@H](CO)C(=O)N[C@@H](C)C(N)=O)C(C)C)[C@@H](C)O)", "values": [{"measurement": "IFN-γ spots pulsed", "setting": "[2]", "result": 310, "unit": "spots"}, {"measurement": "IFN-γ spots unpulsed", "setting": "[2]", "result": 70, "unit": "spots"}]}
{"substance": "AE-TYR-4 (Ac-LRMK[Ava]ALHIYMDGTMSQVQGSA-NH2; SMILES CC[C@H](C)[C@H](NC(=O)[C@H](Cc1c[nH]cn1)NC(=O)[C@H](CC(C)C)NC(=O)[C@H](C)NC(=O)CCCCNC(=O)[C@H](CCCCN)NC(=O)[C@H](CCSC)NC(=O)[C@H](CCCNC(=N)N)NC(=O)[C@H](CC(C)C)NC(C)=O)C(=O)N[C@@H](Cc1ccc(O)cc1)C(=O)N[C@@H](CCSC)C(=O)N[C@@H](CC(=O)O)C(=O)NCC(=O)N[C@H](C(=O)N[C@@H](CCSC)C(=O)N[C@@H](CO)C(=O)N[C@@H](CCC(N)=O)C(=O)N[C@H](C(=O)N[C@@H](CCC(N)=O)C(=O)NCC(=O)N[C@@H](CO)C(=O)N[C@@H](C)C(N)=O)C(C)C)[C@@H](C)O)", "values": [{"measurement": "IFN-γ spots pulsed", "setting": "[2]", "result": 620, "unit": "spots"}, {"measurement": "IFN-γ spots unpulsed", "setting": "[2]", "result": 340, "unit": "spots"}]}
{"substance": "AE-TYR-6 (Ac-LRMK[Ava]HIYMDGTMSQVQGSA-NH2; SMILES CC[C@H](C)[C@H](NC(=O)[C@H](Cc1c[nH]cn1)NC(=O)CCCCNC(=O)[C@H](CCCCN)NC(=O)[C@H](CCSC)NC(=O)[C@H](CCCNC(=N)N)NC(=O)[C@H](CC(C)C)NC(C)=O)C(=O)N[C@@H](Cc1ccc(O)cc1)C(=O)N[C@@H](CCSC)C(=O)N[C@@H](CC(=O)O)C(=O)NCC(=O)N[C@H](C(=O)N[C@@H](CCSC)C(=O)N[C@@H](CO)C(=O)N[C@@H](CCC(N)=O)C(=O)N[C@H](C(=O)N[C@@H](CCC(N)=O)C(=O)NCC(=O)N[C@@H](CO)C(=O)N[C@@H](C)C(N)=O)C(C)C)[C@@H](C)O)", "values": [{"measurement": "IFN-γ spots pulsed", "setting": "[2]", "result": 650, "unit": "spots"}, {"measurement": "IFN-γ spots unpulsed", "setting": "[2]", "result": 280, "unit": "spots"}]}
{"substance": "Ac-LRMK-ava-AYRAIRHIPR-NH2 (Ac-LRMK[Ava]AYRAIRHIPR-NH2; SMILES CC[C@H](C)[C@H](NC(=O)[C@H](C)NC(=O)[C@H](CCCNC(=N)N)NC(=O)[C@H](Cc1ccc(O)cc1)NC(=O)[C@H](C)NC(=O)CCCCNC(=O)[C@H](CCCCN)NC(=O)[C@H](CCSC)NC(=O)[C@H](CCCNC(=N)N)NC(=O)[C@H](CC(C)C)NC(C)=O)C(=O)N[C@@H](CCCNC(=N)N)C(=O)N[C@@H](Cc1c[nH]cn1)C(=O)N[C@H](C(=O)N1CCC[C@H]1C(=O)N[C@@H](CCCNC(=N)N)C(N)=O)[C@@H](C)CC) [Ii-Key/one-ava/gp160(843-855)]", "values": [{"measurement": "Antibody induction, ELISA against HIV gp160(843-855) peptide", "setting": "[3]; Dilution^−1 20", "result": 0.600}, {"measurement": "Antibody induction, ELISA against HIV gp160(843-855) peptide", "setting": "[3]; Dilution^−1 60", "result": 0.157}, {"measurement": "Antibody induction, ELISA against HIV gp160(843-855) peptide", "setting": "[3]; Dilution^−1 180", "result": 0.073}, {"measurement": "Antibody induction, ELISA against HIV gp160(843-855) peptide", "setting": "[3]; Dilution^−1 540", "result": 0.024}]}
{"substance": "Ac-LRMK-ava-ava-AYRAIRHIPR-NH2 (Ac-LRMK[Ava][Ava]AYRAIRHIPR-NH2; SMILES CC[C@H](C)[C@H](NC(=O)[C@H](C)NC(=O)[C@H](CCCNC(=N)N)NC(=O)[C@H](Cc1ccc(O)cc1)NC(=O)[C@H](C)NC(=O)CCCCNC(=O)CCCCNC(=O)[C@H](CCCCN)NC(=O)[C@H](CCSC)NC(=O)[C@H](CCCNC(=N)N)NC(=O)[C@H](CC(C)C)NC(C)=O)C(=O)N[C@@H](CCCNC(=N)N)C(=O)N[C@@H](Cc1c[nH]cn1)C(=O)N[C@H](C(=O)N1CCC[C@H]1C(=O)N[C@@H](CCCNC(=N)N)C(N)=O)[C@@H](C)CC) [Ii-Key/two-ava/gp160(843-855)]", "values": [{"measurement": "Antibody induction, ELISA against HIV gp160(843-855) peptide", "setting": "[3]; Dilution^−1 20", "result": 0.131}, {"measurement": "Antibody induction, ELISA against HIV gp160(843-855) peptide", "setting": "[3]; Dilution^−1 60", "result": 0.039}, {"measurement": "Antibody induction, ELISA against HIV gp160(843-855) peptide", "setting": "[3]; Dilution^−1 180", "result": 0.027}, {"measurement": "Antibody induction, ELISA against HIV gp160(843-855) peptide", "setting": "[3]; Dilution^−1 540", "result": 0.003}]}
